Data taken from US20250375544A1, “DUAL MODE RADIOTRACER AND -THERAPEUTICS” (TECHNISCHE UNIVERSITÄT MÜNCHEN, priority 2021, published 2025).

Columns and labels:
LNCaP cells = type: cell-based, human; details: 1 h, 37° C., 1.0 nM ^177Lu-compound, normalized to ([^125I]I-BA)KuE
[1] = test system: LNCaP tumor xenograft-bearing CB17-SCID mice; assay: Biodistribution in LNCaP tumor xenograft-bearing CB17-SCID mice
[2] = test system: LNCaP tumor xenograft-bearing CB17-SCID mouse; assay: Metabolite analysis 1 h p.i. (radio-RP-HPLC of organ and body fluid extracts); type: in vivo, mice
Description: […] (9.64 MBq) was injected into the tail vein of a LNCaP tumor xenograft-bearing CB17-SCID mouse. The animal was sacrificed 1 h p.i. and subjected to the standard procedure for biodistribution studies. In addition, urine was taken from all mice that were investigated in this experiment (8.4-9.0 MBq) and pooled (n=5). Relevant dissected organs (tumor, kidneys, liver) and body fluids (blood and urine) were collected, homogenized if necessary and subjected to mechanochemical as well as solid phase extraction (SPE).
Four 2 mL LoBind tubes were equipped with steel and ceramic beads from Lysis Tubes W (analytikjena, Jena, Germany) for kidneys, tumor and liver (bisected). 1 mL radioimmunoprecipitation assay (RIPA) buffer containing 2.0 μmol of 2-PMPA was added to each tube and the organs were homogenized with a MM-400 ball mill (Retsch GmbH, Haan, Germany) at 30 Hz for 20 min. Afterwards, the homogenates were transferred to LoBind tubes free from steel and ceramic beads and centrifuged (15,200 rpm, 10 min, 21° C.). The first supernatants were stored, and the precipitates were again subjected to mechanochemical extraction with 1 mL RIPA buffer (2.0 μmol PMPA) at 30 Hz for 20 min. After centrifugation (15,200 rpm, 10 min, 21° C.), also the second supernatants were kept for SPE.
After cardiac puncture, 1 mL Tracepur®-H2O was directly added to the collected blood sample and centrifuged twice (13,000 rpm, 5 min) to separate the plasma from the blood cells. The precipitate was dissolved in 500 μL Tracepur®-H2O and together with the first supernatant again centrifuged (13,000 rpm, 5 min). Both supernatants were kept for SPE.
Pooled urine samples were centrifuged (13,000 rpm, 5 min) and the supernatant was directly analyzed via radio-RP-HPLC.
For solid phase extraction, the supernatants were loaded onto Strata-X cartridges (200 mg), which were preconditioned with 5 mL MeOH and 5 mL H2O (eight cartridges in total, for all organ and blood supernatants). The cartridges were washed with 1 mL Tracepur®-H2O and dried prior to elution. For each cartridge, 750 μL of MeCN/H2O (6/4, 0.1% TFA) were used for elution and the extracts were analyzed via radio-RP-HPLC.
Besides biodistribution and μSPECT/CT studies, [^177Lu]Lu-11 (tetrazole) was analyzed according to its metabolic stability 1 h p.i. Relevant dissected organs (tumor, kidney, liver) and body fluids (blood and urine) were collected, homogenized if necessary and subjected to extraction of the incorporated activity. […] The respective radio-RP-HPLC analyses of extracts from homogenized organs and body fluids are depicted in FIG. 10.

`CC(C)(C)[Si](F)(c1ccc(C(=O)NCC(NC(=O)CN2CCN(CC(=O)[O-])CCN(CC(=O)[O-])CCN(CC(=O)[O-])CC2)C(=O)NC(CCCCNC(=O)CCC(=O)NCCCC(NC(=O)CCC(NC(=O)NC(CCc2nnn[nH]2)C(=O)O)C(=O)O)C(=O)O)C(=O)O)cc1)C(C)(C)C.[177Lu+3]` (stereo not drawn) [[^177Lu]Lu-11, [^177Lu]Lu-Tetrazole Derivative 11] was tested, and the “% Internalization compared to the reference” value (LNCaP cells) was 9.9±3.2%, the “Biodistribution Adrenals” value ([1]; 1 h p.i.) was 0.61 ± 0.42 % ID/g and the “Biodistribution Blood” value ([1]; 1 h p.i.) was 1.09 ± 0.30 % ID/g. The “Biodistribution Bone” value ([1]; 1 h p.i.) was 0.47 ± 0.44 % ID/g, the “Biodistribution Heart” value ([1]; 1 h p.i.) was 0.41 ± 0.04 % ID/g and the “Biodistribution Intestine” value ([1]; 1 h p.i.) was 0.67 ± 0.21 % ID/g. For the same compound, the “Biodistribution Kidneys” value ([1]; 1 h p.i.) was 33.2±3.8 % ID/g, the “Biodistribution Liver” value ([1]; 1 h p.i.) was 0.74 ± 0.17 % ID/g and the “Biodistribution Lung” value ([1]; 1 h p.i.) was 1.23 ± 0.27 % ID/g. For the same compound, the “Biodistribution Muscle” value ([1]; 1 h p.i.) was 0.15 ± 0.03 % ID/g, the “Biodistribution Pancreas” value ([1]; 1 h p.i.) was 0.33 ± 0.11 % ID/g and the “Biodistribution Parotid gland” value ([1]; 1 h p.i.) was 0.56 ± 0.08 % ID/g. For the same compound, the “Biodistribution Spleen” value ([1]; 1 h p.i.) was 1.04 ± 0.15 % ID/g, the “Biodistribution Stomach” value ([1]; 1 h p.i.) was 1.55 ± 1.67 % ID/g and the “Biodistribution Submandibular gland” value ([1]; 1 h p.i.) was 0.40 ± 0.05 % ID/g. For the same compound, the “Biodistribution Tumor” value ([1]; 1 h p.i.) was 3.40±0.63 % ID/g, the “Ratio Tumor-to-blood” value ([1]; 1 h p.i.) was 3.46 ± 1.62 and the “Ratio Tumor-to-kidney” value ([1]; 1 h p.i.) was 0.10 ± 0.03. For the same compound, the “Ratio Tumor-to-liver” value ([1]; 1 h p.i.) was 5.00 ± 2.11, the “Ratio Tumor-to-muscle” value ([1]; 1 h p.i.) was 24.9 ± 10.2 and the “Ratio Tumor-to-parotid gland” value ([1]; 1 h p.i.) was 6.20 ± 1.74. The “Ratio Tumor-to-submandibular gland” value ([1]; 1 h p.i.) was 8.74 ± 2.52, the “tumor-to-submandibularis and -parotidea ratios at 1 h p.i. compared to respective values at 24 h p.i.” value ([1]; 1 h p.i. vs 24 h p.i.) was “two-fold lower” and the “Biodistribution Adrenals” value ([1]; 24 h p.i.) was 0.17 ± 0.19 % ID/g. For the same compound, the “Biodistribution Blood” value ([1]; 24 h p.i.) was 0.00 ± 0.00 % ID/g, the “Biodistribution Bone” value ([1]; 24 h p.i.) was 0.18 ± 0.04 % ID/g and the “Biodistribution Heart” value ([1]; 24 h p.i.) was 0.02 ± 0.00 % ID/g. For the same compound, the “Biodistribution Intestine” value ([1]; 24 h p.i.) was 0.52 ± 0.68 % ID/g, the “Biodistribution Kidneys” value ([1]; 24 h p.i.) was 3.23 ± 0.77 % ID/g and the “Biodistribution Liver” value ([1]; 24 h p.i.) was 0.18 ± 0.04 % ID/g. The “Biodistribution Lung” value ([1]; 24 h p.i.) was 0.05 ± 0.02 % ID/g, the “Biodistribution Muscle” value ([1]; 24 h p.i.) was 0.02 ± 0.01 % ID/g and the “Biodistribution Pancreas” value ([1]; 24 h p.i.) was 0.02 ± 0.00 % ID/g. The “Biodistribution Parotid gland” value ([1]; 24 h p.i.) was 0.06 ± 0.02 % ID/g, the “Biodistribution Spleen” value ([1]; 24 h p.i.) was 0.11 ± 0.03 % ID/g and the “Biodistribution Stomach” value ([1]; 24 h p.i.) was 0.12 ± 0.11 % ID/g. For the same compound, the “Biodistribution Submandibular gland” value ([1]; 24 h p.i.) was 0.04 ± 0.01 % ID/g, the “Biodistribution Tumor” value ([1]; 24 h p.i.) was 0.68 ± 0.16 % ID/g and the “Ratio Tumor-to-blood” value ([1]; 24 h p.i.) was 227 ± 50. For the same compound, the “Ratio Tumor-to-kidney” value ([1]; 24 h p.i.) was 0.22 ± 0.06, the “Ratio Tumor-to-liver” value ([1]; 24 h p.i.) was 3.74 ± 0.50 and the “Ratio Tumor-to-muscle” value ([1]; 24 h p.i.) was 55.9 ± 24.3. For the same compound, the “Ratio Tumor-to-parotid gland” value ([1]; 24 h p.i.) was 12.2 ± 1.7, the “Ratio Tumor-to-submandibular gland” value ([1]; 24 h p.i.) was 16.9 ± 2.2 and the “factor by which tumor-to-submandibular gland and tumor-to-parotid gland ratios declined” value ([1]; 24 h p.i., in comparison to [^177Lu]Lu-PSMA-10) was 8. For the same compound, the “metabolite with higher hydrophilicity, amount” value ([2]; blood) was 8.5%, the “metabolite with higher hydrophilicity, amount” value ([2]; kidney) was 11.7% and the “metabolite with higher hydrophilicity” value ([2]; liver homogenate) was “not detectable”. The “more lipophilic metabolite (tR=20.5 min), amount” value ([2]; liver homogenate) was 28.0%, the “metabolite with higher hydrophilicity, amount” value ([2]; tumor) was 7.1% and the “metabolite with higher hydrophilicity, amount” value ([2]; urine) was 18.7%.
